Assay [1] relates to genes regulating the NF-κB pathway in human umbilical vein endothelial cells (HUVEC). Put plainly: NF-κB pathway-specific gene expression microarray in HUVEC treated with PR peptides. The conditions noted are these: for overall inhibitory effect on NF-κB pathway-related gene expression (in words): FIG. 1, averaged % inhibition over 13 down-regulated genes, relative to PR11; for AKT1 gene expression / ATF2 gene expression / CREB1 gene expression / ELK3 gene expression / JNK1 gene expression / MEK4 gene expression / MEKK1 gene expression / MEKK2 gene expression / NF-κB1 gene expression / NF-κB2 gene expression / P38 MAPK gene expression / RANK gene expression / RIP gene expression / TAK1 gene expression / TBK1 gene expression / TRAF6 gene expression: PR peptides 1 μM, 8 hours, relative to untreated controls; for number of significantly reduced genes: of the 13 down-regulated genes of Tables 5 and 6. It is filed as cell-based. The protocol:
Cell Culture. Human umbilical vein endothelial cells (HUVEC, Cambrex Bio Science Walkersville, Inc., East Rutherford, N.J.) were cultured in endothelial cell basal medium-2 supplemented with EGM-2 SINGLEQUOTS (Cambrex Bio Science Walkersville, Inc.) and FBS. Confluent HUVEC, passage 3-5, were starved overnight in medium supplemented with 0.5% FBS, 0.25% BSA and incubated with PR peptides (1 μM) for 8 hours in starvation medium.
Total RNA Extraction and Gene Profiling by Microarray. Total RNA extraction was performed using the RNEASY mini kit protocol (QIAGEN, Valencia, Calif.). The quality and quantity of total RNA was determined using RNA 6000 Nano chips (Agilent Technology, Santa Clara, Calif.).
Gene profiling was performed using pathway-specific gene expression array for NF-κB signaling transduction (HS-016.2, SuperArray Bioscience Corp.). A total of 96 cDNA fragments from genes related to NF-κB mediated signal transduction, including: NF-κB/IκB family, NF-κB responsive genes (adhesion molecules, cytokines), extracellular ligands, transmembrane receptors, adaptor proteins, signal transduction kinases, and transcription factors were printed in tetraspot format on 3.8×4.8 cm nylon array membrane. Total RNA (0.5 μg) was reverse-transcribed into cDNA labeled with biotin-dUTP according to the manufacture's protocol. After overnight hybridization at 60° C., array membranes were treated with alkaline phosphate-conjugated streptavidin followed by chemiluminescent alkaline phosphate substrate CDP-star (Applied Biosystems, Foster City, Calif.) and exposed to X-ray film. The data were extracted from raw images using […] software (SuperArray, Bioscience Corp.). After background subtraction, the level of gene expression was determined as signal intensity units relative to total array intensity signal. Statistical significant altered genes (PR peptides vs. control) at P values <0.05 were analyzed by Student's t-test, 2-tailed distribution. The data were expressed as fold change PR peptides relative to controls (untreated cells kept in similar conditions).

In assay [2] the target is T1, Mammalian (Human) 20s Proteasome (Homo sapiens, UniProt P25788).
T1 construct: purchased Boston Biochem (Cambridge, Mass.)
Put plainly: Chymotrypsin-like (ChT-L) peptidase activity of 20S proteasome, N-succinyl-LLVY-AMC substrate. It is filed as biochemical. The conditions noted are these: chymotrypsin-like activity; for IC50: 15-minute pre-incubation, 1 hour at 37° C., pH 7.5, 0.03% SDS, read-out: I50. Here is the method:
Determination of Enzymatic Activity. Mammalian (Human) 20s Proteasome was purchased from Boston Biochem (Cambridge, Mass.); substrate, N-succinyl-LLVY-AMC was purchased from SIGMA (St. Louis, Mo.); and negative control, Lactacystin, was purchased from SIGMA. […] Activity was determined by measuring the amount of a fluorescence observed upon release of the MCA group after a 1 hour incubation at 37° C. in 50 mM sodium phosphate buffer at pH 7.5 containing 0.03% SDS. Inhibition by PR-peptide was measured after a 15-minute pre-incubation at 37° C. of each peptide with 20S proteasome, followed by the addition of the substrate and the one hour incubation.

The target in assay [3] is T1, Mammalian (Human) 20s Proteasome. The following applies: Gaczynska, et al. (2003); cited from earlier work.

Read-outs that look alike come from different tables or passages of the source. Marks after values point to notes of the source that are not given here. Ends that are not written are not given here.

With RRAPRPPYLPR [Peptide A3], in assay [1], the “overall inhibitory effect on NF-κB pathway-related gene expression (in words)” value (shortened to “overall inhibitory effect”) was “more active than A1-PR11 and A2-PR11”. Further, in assay [1] (HUVEC), the AKT1 gene expression worked out at 1.7 fold change, the ATF2 gene expression is −1.3 fold change, the CREB1 gene expression is given as −1.3 fold change and the ELK3 gene expression is recorded as 1.3* fold change. For the same sequence, in assay [1] (HUVEC), the JNK1 gene expression is listed as −2.6 fold change, the MEK4 gene expression was −2.7* fold change, the MEKK1 gene expression is listed as −1.9 fold change and the MEKK2 gene expression was −2.1* fold change. For the same sequence, in assay [1] (HUVEC), the NF-κB1 gene expression is −2.0 fold change, the NF-κB2 gene expression is listed as −1.4 fold change, the “P38 MAPK gene expression” value is on record as −1.9* fold change and the RANK gene expression is on record as 1.7* fold change. Moreover, in assay [1] (HUVEC), the RIP gene expression is listed as −3.0* fold change, the TAK1 gene expression is −3.3* fold change, the TBK1 gene expression is given as −2.1* fold change and the TRAF6 gene expression is −1.4 fold change. Moreover, in assay [1] (HUVEC), the “number of significantly reduced genes” value is reported as 5 genes. In addition, in assay [2], the IC50 worked out at 3150 nM.

In the case of RRKPRPPYLPR [Peptide K3], in assay [1], the “overall inhibitory effect” value is “not significantly different than PR11”. Moreover, in assay [1] (HUVEC), the AKT1 gene expression was 1.7 fold change, the ATF2 gene expression was −1.6* fold change, the CREB1 gene expression was −1.6 fold change and the ELK3 gene expression is 1.4^# fold change. Also, in assay [1] (HUVEC), the JNK1 gene expression is on record as −3.2* fold change, the MEK4 gene expression is −3.1* fold change, the MEKK1 gene expression was −3.2 fold change and the MEKK2 gene expression is recorded as −1.9^# fold change. Moreover, in assay [1] (HUVEC), the NF-κB1 gene expression is listed as −2.2 fold change, the NF-κB2 gene expression was −1.2 fold change, the “P38 MAPK gene expression” value is listed as −1.7* fold change and the RANK gene expression is reported as 1.7* fold change. Further, in assay [1] (HUVEC), the RIP gene expression was −2.4* fold change, the TAK1 gene expression is reported as −3.1^# fold change, the TBK1 gene expression is recorded as −1.8* fold change and the TRAF6 gene expression is given as −1.7 fold change. The “number of significantly reduced genes” value in assay [1] (HUVEC) came to 8 genes. Also, in assay [2], the IC50 was 819 nM.

RRRPRPPELPR [Peptide E8]: the “overall inhibitory effect” value in assay [1] is “reduced activity compared with PR11 or Trp12”. Further, in assay [1] (HUVEC), the AKT1 gene expression is given as 0.8 fold change, the ATF2 gene expression is on record as −1.6* fold change, the CREB1 gene expression is reported as −1.9 fold change and the ELK3 gene expression result is given as “^−1.8^# fold change”. In addition, in assay [1] (HUVEC), the JNK1 gene expression is reported as −1.2 fold change, the MEK4 gene expression is −1.2 fold change, the MEKK1 gene expression is on record as −1.0 fold change and the MEKK2 gene expression was −1.3 fold change. Further, in assay [1] (HUVEC), the NF-κB1 gene expression is listed as −1.7 fold change, the NF-κB2 gene expression is listed as −1.4 fold change, the “P38 MAPK gene expression” value is −1.5 fold change and the RANK gene expression worked out at 1.5 fold change. In assay [1] (HUVEC), the RIP gene expression is −3.6* fold change, the TAK1 gene expression is −1.7* fold change, the TBK1 gene expression is on record as −2.3^# fold change and the TRAF6 gene expression is recorded as −1.2 fold change. Moreover, in assay [2], the IC50 is 2370 nM.

For the sequence RRRPRPPELPRW [Peptide E8W12], the “overall inhibitory effect” value in assay [1] was “reduced activity compared with PR11 or Trp12”. In assay [1] (HUVEC), the AKT1 gene expression is reported as 1.8* fold change, the ATF2 gene expression is recorded as −1.8* fold change, the CREB1 gene expression was −1.5 fold change and the ELK3 gene expression came to 1.0 fold change. Further, in assay [1] (HUVEC), the JNK1 gene expression is −1.8 fold change, the MEK4 gene expression was −2.4* fold change, the MEKK1 gene expression is −1.7 fold change and the MEKK2 gene expression is reported as −1.1 fold change. In addition, in assay [1] (HUVEC), the NF-κB1 gene expression is −1.6 fold change, the NF-κB2 gene expression was −1.3 fold change, the “P38 MAPK gene expression” value is −1.1 fold change and the RANK gene expression is recorded as 1.8^# fold change. For the same sequence, in assay [1] (HUVEC), the RIP gene expression is −1.5 fold change, the TAK1 gene expression is reported as −1.2 fold change, the TBK1 gene expression is −1.6* fold change and the TRAF6 gene expression was −1.2 fold change. Besides, in assay [2], the “20S proteasome inhibiting activity (in words)” value was “behaved much the same as the Glu8 mutant” and the IC50 came out at 2610 nM.

As to RRRPRPPY [PR8], the “20S proteasome inhibiting activity (in words)” value in assay [3] is “does not inhibit 20S activity”.

As for RRRPRPPYLPR [PR11, reference compound], the “number of genes whose expression was significantly affected” value in assay [1] (HUVEC, NF-κB array of 96 genes) came to 16 genes. Moreover, in assay [1] (HUVEC), the AKT1 gene expression was 3.0* fold change, the ATF2 gene expression is on record as −2.1* fold change, the CREB1 gene expression is −2.1* fold change and the ELK3 gene expression was 1.9* fold change. Also, in assay [1] (HUVEC), the JNK1 gene expression is given as −6.5^# fold change, the MEK4 gene expression was −3.1* fold change, the MEKK1 gene expression is given as −2.9* fold change and the MEKK2 gene expression is −2.6* fold change. In assay [1] (HUVEC), the NF-κB1 gene expression was −4.1* fold change, the NF-κB2 gene expression is listed as −3.3^# fold change, the “P38 MAPK gene expression” value was −3.6^# fold change and the RANK gene expression was 1.5* fold change. Further, in assay [1] (HUVEC), the RIP gene expression was −10.4^# fold change, the TAK1 gene expression is on record as −9.2^# fold change, the TBK1 gene expression is −2.8^# fold change and the TRAF6 gene expression is −2.4* fold change. In addition, the IC50 in assay [2] was 805 nM.

As to RRRPRPPYLPRW [Peptide W12], in assay [1] (HUVEC), the AKT1 gene expression was 2.5^# fold change, the ATF2 gene expression is recorded as −2.7^# fold change, the CREB1 gene expression was −1.6 fold change and the ELK3 gene expression is recorded as 1.3^# fold change. Moreover, in assay [1] (HUVEC), the JNK1 gene expression was −5.3* fold change, the MEK4 gene expression is −4.0^# fold change, the MEKK1 gene expression is −4.6* fold change and the MEKK2 gene expression is −2.4^# fold change. Moreover, in assay [1] (HUVEC), the NF-κB1 gene expression is reported as −2.6 fold change, the NF-κB2 gene expression is −1.9* fold change, the “P38 MAPK gene expression” value is given as −2.5^# fold change and the RANK gene expression is reported as 2.1^# fold change. In assay [1] (HUVEC), the RIP gene expression is on record as −5.5* fold change, the TAK1 gene expression was −2.0^# fold change, the TBK1 gene expression is on record as −4.7^# fold change and the TRAF6 gene expression is listed as −3.1* fold change. In addition, in assay [2], the “20S proteasome inhibiting activity (in words)” value is recorded as “did not noticeably alter PR11 activity”.

The values above are taken from patent US8030446B2, “Mutant proline-and-arginine rich peptides and methods for using the same” (Trustees of Dartmouth College, priority 2006, dated 2011).
